Experimental data: patent publication US7718391B2, “Assays for identifying modulators of rhomboid polypeptides” (Medical Research Council, priority 2001, dated 2010)
Read-outs that look alike come from different tables or passages of the source. Non-standard residues stand in square brackets, D forms with d. Residues, ends and D or L forms follow the SMILES beside them. *: point of attachment. Sta = CC(C)C[C@H](N)[C@@H](O)CC(=O)O; Isovaleryl = CC(C)CC(=O)*; Nle = CCCC[C@H](N)C(=O)O; Cbz = O=C(OCc1ccccc1)*

Tests used:
Rhomboid-1 = biological target: T1, Rhomboid-1 (Drosophila melanogaster, UniProt P20350); test: Rhomboid-1 and Star dependent cleavage of GFP-Spitz in transfected COS cells (western blot of medium); type: cell-based
T1 construct: When co-expressed with Star and full-length Rhomboid-1 in the COS cell Spitz cleavage assay; expressed in transfected cells; host or cells: COS cells, pcDNA3.1 constructs, transient transfection
T1 sequence (P20350 1-355): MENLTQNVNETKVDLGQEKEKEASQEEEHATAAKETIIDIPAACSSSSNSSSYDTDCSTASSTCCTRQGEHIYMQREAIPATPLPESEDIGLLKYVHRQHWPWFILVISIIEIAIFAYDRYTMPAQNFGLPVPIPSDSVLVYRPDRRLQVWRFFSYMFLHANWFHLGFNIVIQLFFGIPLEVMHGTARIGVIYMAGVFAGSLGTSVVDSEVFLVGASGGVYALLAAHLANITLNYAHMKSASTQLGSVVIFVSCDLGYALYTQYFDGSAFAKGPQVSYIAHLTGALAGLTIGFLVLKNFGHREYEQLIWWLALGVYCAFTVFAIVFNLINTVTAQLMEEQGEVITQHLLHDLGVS
Protocol: COS cells were grown in DMEM medium (supplemented with 10% foetal calf serum), and transfected with FuGENE 6 Transfection Reagent (Roche). Cells were transfected in 35 mm culture wells with 25-250 ng of each construct and empty plasmid to bring the total DNA to 1 μg per well. 24-30 hours post-transfection the medium was replaced with serum-free medium; this was harvested 24 hours later and cells were lysed in SDS-sample buffer. GFP was detected in conditioned medium and cell lysates by western blot with a rabbit polyclonal antibody. For some experiments the serum-free medium was supplemented with the metalloprotease inhibitor batimastat (British Biotech) or ilomostat (Calbiochem). Cells were transfected as standard with 1 ng of Rhomboid-1 DNA (in 1 μg total DNA) and were then incubated in serum-free medium for 24 hours. The medium was then replaced with 0.5 ml serum free medium containing protease inhibitor at the indicated concentration and incubated for 1 hour. After 1 hour, the medium was collected, cleared by centrifugation, dialysed overnight against several changes of water and lyophilised. The resulting pellets were re-suspended in SDS sample buffer, boiled and analysed by Western blot. Transfections with a secreted form of Spitz were used in parallel to control for non-specific toxicity of the protease inhibitors or general inhibition of the secretory pathway. The proteolytic cleavage assay was recapitulated in a mammalian tissue culture system. Spitz was tagged with GFP near its N-terminus and transiently expressed in COS cells, in the presence or absence of Star and/or Rhomboid-1. The accumulation of the soluble extracellular fragment of GFP-Spitz in the cell medium was then measured by western blot.

[1] = system: artificially truncated form of Spitz; test: Control: expression or secretion of an artificially truncated (secreted) form of Spitz; type: cell-based, Drosophila; details: this concentration (10-100:M)
Protocol: Cells were transfected as standard with 1 ng of Rhomboid-1 DNA (in 1 μg total DNA) and were then incubated in serum-free medium for 24 hours. The medium was then replaced with 0.5 ml serum free medium containing protease inhibitor at the indicated concentration and incubated for 1 hour. After 1 hour, the medium was collected, cleared by centrifugation, dialysed overnight against several changes of water and lyophilised. The resulting pellets were re-suspended in SDS sample buffer, boiled and analysed by Western blot. Transfections with a secreted form of Spitz were used in parallel to control for non-specific toxicity of the protease inhibitors or general inhibition of the secretory pathway.

[2] = system: uncleavable Spitz-TGFα chimera (Spitz with residues 140-160 replaced by the equivalent residues from TGFα, with the TGFα C-terminus)
[3] = system: uncleavable Spitz-TGFα chimera with Spitz residue G143 restored in the TGFα TMD
Drosophila Delta, P10041 = biological target: T2, Drosophila Delta, P10041
T2 chain: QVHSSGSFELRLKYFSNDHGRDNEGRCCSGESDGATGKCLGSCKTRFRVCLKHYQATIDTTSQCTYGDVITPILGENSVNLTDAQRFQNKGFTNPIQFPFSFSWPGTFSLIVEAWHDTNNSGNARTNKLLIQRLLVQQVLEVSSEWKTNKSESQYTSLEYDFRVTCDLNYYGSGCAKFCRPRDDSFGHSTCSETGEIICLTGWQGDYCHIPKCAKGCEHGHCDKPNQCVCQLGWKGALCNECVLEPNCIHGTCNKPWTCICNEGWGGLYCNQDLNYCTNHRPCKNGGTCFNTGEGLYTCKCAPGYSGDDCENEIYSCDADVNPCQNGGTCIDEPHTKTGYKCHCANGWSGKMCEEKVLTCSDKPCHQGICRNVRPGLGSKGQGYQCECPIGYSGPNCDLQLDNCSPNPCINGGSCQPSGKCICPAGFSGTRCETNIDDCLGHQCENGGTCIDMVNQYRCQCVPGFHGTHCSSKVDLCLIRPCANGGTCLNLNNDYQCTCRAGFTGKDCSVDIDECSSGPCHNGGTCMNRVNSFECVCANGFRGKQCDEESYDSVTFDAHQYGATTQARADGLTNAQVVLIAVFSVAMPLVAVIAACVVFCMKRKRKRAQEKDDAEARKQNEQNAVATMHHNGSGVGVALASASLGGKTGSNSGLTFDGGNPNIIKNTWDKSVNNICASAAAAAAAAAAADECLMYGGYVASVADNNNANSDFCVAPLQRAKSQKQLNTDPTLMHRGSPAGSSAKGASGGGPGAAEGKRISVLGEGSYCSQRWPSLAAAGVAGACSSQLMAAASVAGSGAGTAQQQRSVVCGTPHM

[4] = biological target: T3, Drosophila EGF receptor, P04412
T3 chain: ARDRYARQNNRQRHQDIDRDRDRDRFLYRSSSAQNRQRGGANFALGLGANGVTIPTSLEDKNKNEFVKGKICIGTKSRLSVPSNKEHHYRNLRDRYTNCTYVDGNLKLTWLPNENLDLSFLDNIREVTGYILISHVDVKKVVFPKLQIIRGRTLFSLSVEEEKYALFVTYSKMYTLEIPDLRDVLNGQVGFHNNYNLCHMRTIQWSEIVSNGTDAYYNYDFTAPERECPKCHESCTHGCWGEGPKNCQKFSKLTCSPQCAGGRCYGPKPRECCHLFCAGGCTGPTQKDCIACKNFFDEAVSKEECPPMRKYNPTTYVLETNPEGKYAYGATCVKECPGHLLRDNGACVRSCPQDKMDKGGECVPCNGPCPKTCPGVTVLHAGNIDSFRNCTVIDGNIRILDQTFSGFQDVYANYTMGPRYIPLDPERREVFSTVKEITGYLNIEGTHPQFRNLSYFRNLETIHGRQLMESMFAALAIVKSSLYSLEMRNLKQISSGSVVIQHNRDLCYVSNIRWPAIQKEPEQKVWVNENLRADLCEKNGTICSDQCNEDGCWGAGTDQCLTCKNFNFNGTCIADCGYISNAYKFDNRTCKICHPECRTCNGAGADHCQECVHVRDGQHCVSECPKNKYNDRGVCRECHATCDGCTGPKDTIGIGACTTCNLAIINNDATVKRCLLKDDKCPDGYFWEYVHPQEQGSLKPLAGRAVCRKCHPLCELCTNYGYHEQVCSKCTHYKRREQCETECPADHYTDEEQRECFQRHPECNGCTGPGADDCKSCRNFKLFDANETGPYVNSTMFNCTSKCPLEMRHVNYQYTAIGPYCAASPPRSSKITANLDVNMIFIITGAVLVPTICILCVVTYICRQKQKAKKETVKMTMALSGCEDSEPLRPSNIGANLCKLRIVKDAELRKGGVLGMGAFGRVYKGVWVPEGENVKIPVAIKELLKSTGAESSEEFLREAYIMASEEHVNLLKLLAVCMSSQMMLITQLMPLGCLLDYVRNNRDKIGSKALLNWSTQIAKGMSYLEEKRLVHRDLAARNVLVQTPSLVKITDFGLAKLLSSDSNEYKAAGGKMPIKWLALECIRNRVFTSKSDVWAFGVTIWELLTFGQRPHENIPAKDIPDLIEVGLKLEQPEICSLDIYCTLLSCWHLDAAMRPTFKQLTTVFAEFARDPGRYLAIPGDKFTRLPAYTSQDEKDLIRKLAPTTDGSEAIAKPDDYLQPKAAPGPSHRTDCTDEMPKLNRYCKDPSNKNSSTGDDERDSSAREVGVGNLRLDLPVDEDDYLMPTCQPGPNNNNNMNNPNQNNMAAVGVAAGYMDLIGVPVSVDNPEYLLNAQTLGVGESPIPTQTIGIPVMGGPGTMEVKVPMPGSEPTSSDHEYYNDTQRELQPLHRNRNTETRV

[5] = biological target: human TGFα (EGFP inserted between residues 32 and 33)
[6] = biological target: uncleavable Spitz-TGFα chimera (Spitz with residues 140-160 replaced by the equivalent residues from TGFα, with the TGFα C-terminus); remark: listed apart in the source
[7] = biological target: uncleavable Spitz-TGFα chimera with Spitz residue G143 restored in the TGFα TMD; remark: listed apart in the source

Molecule: Cc1ccc(S(=O)(=O)N[C@@H](Cc2ccccc2)C(=O)CCl)cc1 [TPCK]
- Rhomboid activity (summary statement) (Rhomboid-1): inhibit
- inhibition of Rhomboid activity, standard cleavage assay with panel of inhibitors (Rhomboid-1; 10-100:M): strongly inhibited
- expression or secretion of an artificially truncated form of Spitz (extracellular domain) [1]: did not effect

Molecule: CC(C)CC(=O)N[C@H](C(=O)N[C@H](C(=O)N[C@@H](CC(C)C)[C@@H](O)CC(=O)N[C@@H](C)C(=O)N[C@@H](CC(C)C)[C@@H](O)CC(=O)O)C(C)C)C(C)C [pepstatin A] (Isovaleryl-VV[Sta]A[Sta]-OH)
- inhibition of Rhomboid activity, standard cleavage assay with panel of inhibitors (Rhomboid-1; 50:M): No inhibition

Molecule: CC(=O)N[C@@H](CC(C)C)C(=O)N[C@@H](CC(C)C)C(=O)N[C@H](C=O)CCCNC(=N)N [leupeptin]
- inhibition of Rhomboid activity, standard cleavage assay with panel of inhibitors (Rhomboid-1; 100:M): No inhibition

Molecule: O=c1oc(Cl)c(Cl)c2ccccc12 [3,4-DCI]
- Rhomboid activity (summary statement) (Rhomboid-1): inhibit
- inhibition of Rhomboid activity, standard cleavage assay with panel of inhibitors (Rhomboid-1; 10-100:M): strongly inhibited
- expression or secretion of an artificially truncated form of Spitz (extracellular domain) [1]: did not effect

Molecule: CNC(=O)[C@H](Cc1c[nH]c2ccccc12)NC(=O)[C@@H](CC(=O)NO)CC(C)C [ilomostat]
- Rhomboid-1-dependent cleavage of Spitz (Rhomboid-1; concentration not given): insensitive
- inhibition of Rhomboid activity, standard cleavage assay with panel of inhibitors (Rhomboid-1; concentration not given): No inhibition

Molecule: Drosophila Rhomboid-3
- protease activity against the uncleavable form of Spitz [2]: they could not cleave the TGFα TMD
- protease activity against the TGFα TMD with a restored G143 [3]: did cleave when only G143 was added back

Molecule: CCCC[C@@H](C=O)NC(=O)[C@H](CC(C)C)NC(=O)[C@H](CC(C)C)NC(=O)OCc1ccccc1 [gamma secretase inhibitor I] (Cbz-Leu-Leu-[Nle]-aldehyde)
- inhibition of Rhomboid activity, standard cleavage assay with panel of inhibitors (Rhomboid-1; 25:M): No inhibition

Molecule: Drosophila Rhomboid-2
- protease activity against the uncleavable form of Spitz [2]: they could not cleave the TGFα TMD
- protease activity against the TGFα TMD with a restored G143 [3]: did cleave when only G143 was added back

Molecule: CCOC(=O)[C@H]1O[C@@H]1C(=O)N[C@@H](CC(C)C)C(=O)NCCC(C)C [E64d]
- inhibition of Rhomboid activity, standard cleavage assay with panel of inhibitors (Rhomboid-1; 50:M): No inhibition

Molecule: O=C(O)/C(S)=C/c1ccc(I)cc1 [PD150606]
- inhibition of Rhomboid activity, standard cleavage assay with panel of inhibitors (Rhomboid-1; concentration not given): No inhibition

B1: Drosophila Rhomboid-1 (triple HA tag at the N-terminus) (protein)
chain: MENPTQNVNETKVDLGQEKEKEASQEEEHATAAKETIIDIPAACSSSSNSSSYDTDCSTASSTCCTRQGEHIYMQREAIPATPLPESEDIGLLKYVHRQHWPWFILVISIIEIAIFAYDRYTMPAQNFGLPVPIPSDSVLVYRPDRRLQVWRFFSYMFLHANWFHLGFNIVIQLFFGIPLEVMHGTARIGVIYMAGVFAGSLGTSVVDSEVFLVGASGGVYALLAAHLANITLNYAHMKSASTQLGSVVIFVSCDLGYALYTQYFDGSAFAKGPQVSYIAHLTGALAGLTIGFLVLKNFGHREYEQLIWWLALGVYCAFTVFAIVFNLINTVTAQLMEEQGEVITQHLLHDLGVS
- cleavage of type-I membrane proteins (Drosophila Delta, P10041): Rhomboid-1 could not cleave other type-I membrane proteins including ... Drosophila Delta
- cleavage of type-I membrane proteins [4]: Rhomboid-1 could not cleave other type-I membrane proteins including Drosophila EGF receptor
- cleavage of type-I membrane proteins [5]: Rhomboid-1 could not cleave other type-I membrane proteins including ... human TGFα
- cleavage of type-I membrane proteins (human TGN38): Rhomboid-1 could not cleave other type-I membrane proteins including ... human TGN38
- cleavage of Spitz/TGFα TMD chimeras, without Star, with batimastat [6]: replacing the remaining 5 residues (residues 140-160) abolished cleavage
- cleavage of the uncleavable Spitz-TGFα chimera with single Spitz residues put back [7]: substitution of only Spitz residue G143 restored cleavage of this chimeric substrate

B2: Human RHBDL2 (protein)
chain: MNLNMGREMKEELEEEEKMREDGGGKDRAKSKKVHRIVSKWMLPEKSRGTYLERANCFPPPVFIISISLAELAVFIYYAVWKPQKQWITLDTGILESPFIYSPEKREEAWRFISYMLVHAGVQHILGNLCMQLVLGIPLEMVHKGLRVGLVYLAGVIAGSLASSIFDPLRYLVGASGGVYALMGGYFMNVLVNFQEMIPAFGIFRLLIIILIIVLDMGFALYRRFFVPEDGSPVSFAAHIAGGFAGMSIGYTVFSCFDKALLKDPRFWIAIAAYLACVLFAVFFNIFLSPAN
- protease activity against the uncleavable form of Spitz [6]: they could not cleave the TGFα TMD
- protease activity against the TGFα TMD with a restored G143 [7]: did cleave when only G143 was added back
